Converted amounts (≈) assume the structure as drawn. Values belong to the molecule of their own block, whether it stands above or below them.
Legend:
[1] = tested on: Staphylococcus aureus; experiment: Antibacterial activity against Staphylococcus aureus; assay type: functional
[2] = tested on: Escherichia coli; experiment: Antibacterial activity against Escherichia coli; assay type: functional
[3] = tested on: Pseudomonas aeruginosa; experiment: Antibacterial activity against Pseudomonas aeruginosa; assay type: functional
[4] = tested on: Candida albicans; experiment: Antifungal activity against Candida albicans; assay type: functional
[5] = tested on: Proteus vulgaris; experiment: Antibacterial activity against Proteus vulgaris; assay type: functional
[6] = tested on: Klebsiella aerogenes; experiment: Antibacterial activity against Klebsiella aerogenes; assay type: functional
[7] = tested on: Enterococcus faecalis; experiment: Antibacterial activity against Enterococcus faecalis; assay type: functional
[8] = tested on: Staphylococcus epidermidis; experiment: Antibacterial activity against Staphylococcus epidermidis; assay type: functional
[9] = tested on: Salmonella typhimurium; experiment: Antibacterial activity against Salmonella typhimurium; assay type: functional, Salmonella enterica subsp. enterica serovar Typhimurium; settings: Salmonella enterica
[10] = tested on: Bacillus subtilis; experiment: Antibacterial activity against Bacillus subtilis; assay type: functional
[11] = tested on: Proteus; experiment: Antibacterial activity against Proteus; assay type: functional
[12] = tested on: Staphylococcus aureus; experiment: Antibacterial activity against Staphylococcus aureus ATCC 6538 after 18 hrs by two fold serial dilution; assay type: functional; settings: ATCC 6538, 18 h
[13] = tested on: Bacillus subtilis; experiment: Antibacterial activity against Bacillus subtilis PTCC 1023 after 18 hrs by two fold serial dilution; assay type: functional; settings: PTCC 1023, 18 h
[14] = tested on: Klebsiella pneumoniae; experiment: Antibacterial activity against Klebsiella pneumoniae ATCC 10031 after 18 hrs by two fold serial dilution; assay type: functional; settings: ATCC 10031, 18 h
[15] = tested on: Escherichia coli; experiment: Antibacterial activity against Escherichia coli ATCC 8739 after 18 hrs by two fold serial dilution; assay type: functional; settings: ATCC 8739, 18 h
[16] = tested on: Klebsiella aerogenes; experiment: Antibacterial activity against Enterobacter aerogenes PTCC 1221 after 18 hrs by two fold serial dilution; assay type: functional; settings: PTCC 1221, 18 h
[17] = tested on: Streptococcus pyogenes; experiment: Antibacterial activity against Streptococcus pyogenes; assay type: functional
[18] = tested on: Staphylococcus epidermidis; experiment: Antibacterial activity against methicillin-sensitive Staphylococcus epidermidis by two fold dilution method; assay type: functional
[19] = tested on: Staphylococcus aureus; experiment: Antibacterial activity against methicillin-sensitive Staphylococcus aureus by two fold dilution method; assay type: functional
[20] = tested on: Helicobacter pylori; experiment: Antibacterial activity against Helicobacter pylori NCTC 11637; assay type: functional
[21] = tested on: Helicobacter pylori; experiment: Antibacterial activity against Helicobacter pylori; assay type: functional
[22] = tested on: Helicobacter pylori; experiment: Antibacterial activity against metronidazole-resistant Helicobacter pylori clinical isolates; assay type: functional
[23] = tested on: Helicobacter pylori; experiment: Antibacterial activity against metronidazole-resistant Helicobacter pylori; assay type: functional
[24] = tested on: Helicobacter pylori; experiment: Potency index, ratio of metronidazole MIC90 to test compound MIC90 for metronidazole-resistant Helicobacter pylori; assay type: functional
[25] = tested on: Escherichia coli; experiment: Antibacterial activity against Escherichia coli infected in mouse; assay type: functional
[26] = tested on: Staphylococcus epidermidis; experiment: Antibacterial activity against Staphylococcus epidermidis ATCC 12228 after 18 hrs by two fold serial dilution; assay type: functional; settings: ATCC 12228, 18 h
[27] = tested on: Enterococcus faecalis; experiment: Antibacterial activity against Enterococcus faecalis after 24 hrs; assay type: functional
[28] = tested on: Staphylococcus aureus; experiment: Antibacterial activity against Staphylococcus aureus ATCC 25923 after 24 hrs; assay type: functional; settings: ATCC 25923, 24 h
[29] = tested on: Staphylococcus aureus; experiment: Antibacterial activity against Staphylococcus aureus ATCC 29213 after 24 hrs; assay type: functional; settings: ATCC 29213, 24 h
[30] = tested on: Staphylococcus aureus; experiment: Antibacterial activity against methicillin-resistant Staphylococcus aureus after 24 hrs; assay type: functional
[31] = tested on: Pseudomonas aeruginosa; experiment: Antibacterial activity against Pseudomonas aeruginosa after 24 hrs; assay type: functional
[32] = tested on: Pseudomonas aeruginosa; experiment: Antibacterial activity against Pseudomonas aeruginosa ATCC 27853 after 24 hrs; assay type: functional; settings: ATCC 27853, 24 h
[33] = tested on: Escherichia coli; experiment: Antibacterial activity against Escherichia coli ATCC 25922 after 24 hrs; assay type: functional; settings: ATCC 25922, 24 h
[34] = tested on: Klebsiella pneumoniae; experiment: Antibacterial activity against Klebsiella pneumoniae after 24 hrs; assay type: functional
[35] = tested on: Escherichia coli; experiment: Antibacterial activity against drug-resistant Escherichia coli after 24 hrs; assay type: functional

MIC [1]: 31.2 to 500 µg/mL
MIC [2]: 31.2 to 500 µg/mL (≈ 79.6 to 1270 µM)
MIC [3]: 31.2 to 500 µg/mL (≈ 79.6 to 1270 µM)
MIC [4]: 31.2 to 500 µg/mL (≈ 79.6 to 1270 µM)
MIC [5]: 31.2 to 500 µg/mL (≈ 79.6 to 1270 µM)
MIC [6]: 31.2 to 500 µg/mL (≈ 79.6 to 1270 µM)
MIC [7]: 31.2 to 500 µg/mL (≈ 79.6 to 1270 µM)
MIC [8]: 31.2 to 500 µg/mL (≈ 79.6 to 1270 µM)
MIC [9]: 31.2 to 500 µg/mL (≈ 79.6 to 1270 µM)
Compound: Cc1ncc([N+](=O)[O-])n1CCN1C(=O)S/C(=C\c2ccc(Cl)cc2)C1=O

MIC [1]: 64 to 128 µg/mL
MIC [10]: 64 to 128 µg/mL (≈ 128 to 257 µM)
MIC [2]: 64 to 128 µg/mL (≈ 128 to 257 µM)
MIC [3]: 64 to 128 µg/mL (≈ 128 to 257 µM)
MIC [9]: 64 to 128 µg/mL (≈ 128 to 257 µM)
MIC [11]: 64 to 128 µg/mL (≈ 128 to 257 µM)
Compound: Cc1ncc([N+](=O)[O-])n1CCCNS(=O)(=O)c1ccc(NCc2ccc(Cl)cc2Cl)cc1

MIC [12]: 4 to 32 µg/mL (≈ 11.3 to 90.3 µM)
MIC [13]: > 64 µg/mL
MIC [14]: > 64 µg/mL
MIC [15]: > 64 µg/mL
MIC [16]: > 64 µg/mL
Compound: Cn1cnc([N+](=O)[O-])c1Sc1nnc(-c2ccc([N+](=O)[O-])o2)s1

MIC [1]: 184 to 2890 µM
MIC [17]: 184 to 2890 µM (≈ 65 to 1020 µg/mL)
Compound: Cc1nc([N+](=O)[O-])cn1Cc1nn(CN2CCN(C)CC2)c(=S)o1

Compound: COc1c(N2C[C@@H]3CCCN(C[C@@H](O)Cn4c([N+](=O)[O-])cnc4C)[C@@H]3C2)c(F)cc2c(=O)c(C(=O)O)cn(C3CC3)c12
MIC [18]: 0.03 to 2 µg/mL (≈ 0.0513 to 3.42 µM)
MIC [19]: 0.03 to 2 µg/mL (≈ 0.0513 to 3.42 µM)

MIC [1]: 31.2 to 500 µg/mL
MIC [2]: 31.2 to 500 µg/mL (≈ 89.7 to 1440 µM)
MIC [3]: 31.2 to 500 µg/mL (≈ 89.7 to 1440 µM)
MIC [4]: 31.2 to 500 µg/mL (≈ 89.7 to 1440 µM)
MIC [5]: 31.2 to 500 µg/mL (≈ 89.7 to 1440 µM)
MIC [6]: 31.2 to 500 µg/mL (≈ 89.7 to 1440 µM)
MIC [7]: 31.2 to 500 µg/mL (≈ 89.7 to 1440 µM)
MIC [8]: 31.2 to 500 µg/mL (≈ 89.7 to 1440 µM)
MIC [9]: 31.2 to 500 µg/mL (≈ 89.7 to 1440 µM)
Compound: Cc1ncc([N+](=O)[O-])n1CCN1C(=O)S/C(=C\c2ccco2)C1=O

Compound: Cc1ncc([N+](=O)[O-])n1CCNCc1no[n+]([O-])c1C(N)=O
MIC90 [20]: 0.5 to 32 µg/mL (≈ 1.61 to 103 µM)
MIC90 [21]: 0.5 to 32 µg/mL (≈ 1.61 to 103 µM)

Compound: Cc1ncc([N+](=O)[O-])n1CCNCc1no[n+]([O-])c1C
MIC90 [20]: 0.5 to 32 µg/mL (≈ 1.77 to 113 µM)
MIC90 [21]: 0.5 to 32 µg/mL (≈ 1.77 to 113 µM)

Compound: Cc1ncc([N+](=O)[O-])n1CCOc1no[n+]([O-])c1S(=O)(=O)c1ccccc1
MIC90 [20]: 0.5 to 32 µg/mL (≈ 1.26 to 80.9 µM)
MIC90 [22]: 0.5 to 32 µg/mL (≈ 1.26 to 80.9 µM)
MIC90 [21]: 1 to 4 µg/mL (≈ 2.53 to 10.1 µM)

Compound: Cc1ncc([N+](=O)[O-])n1CCNCc1nonc1C#N
MIC90 [20]: 0.5 to 32 µg/mL (≈ 1.8 to 115 µM)
MIC90 [21]: 0.5 to 32 µg/mL (≈ 1.8 to 115 µM)

Compound: Cc1ncc([N+](=O)[O-])n1CCOc1nonc1-c1ccccc1
MIC90 [20]: 0.5 to 32 µg/mL (≈ 1.59 to 101 µM)
MIC90 [22]: 0.5 to 32 µg/mL (≈ 1.59 to 101 µM)
MIC90 [21]: 1 to 4 µg/mL (≈ 3.17 to 12.7 µM)

Compound: Cc1ncc([N+](=O)[O-])n1CCNCc1nonc1C(N)=O
MIC90 [20]: 0.5 to 32 µg/mL (≈ 1.69 to 108 µM)
MIC90 [21]: 0.5 to 32 µg/mL (≈ 1.69 to 108 µM)

Compound: Cc1ncc([N+](=O)[O-])n1CCOc1nonc1S(=O)(=O)c1ccccc1
MIC90 [20]: 0.5 to 32 µg/mL (≈ 1.32 to 84.4 µM)
MIC90 [22]: 0.5 to 32 µg/mL (≈ 1.32 to 84.4 µM)
MIC90 [21]: 1 to 4 µg/mL (≈ 2.64 to 10.5 µM)

Compound: Cc1nonc1CNCCn1c([N+](=O)[O-])cnc1C
MIC90 [20]: 0.5 to 32 µg/mL (≈ 1.88 to 120 µM)
MIC90 [21]: 0.5 to 32 µg/mL (≈ 1.88 to 120 µM)

Compound: Cc1ncc([N+](=O)[O-])n1CCOc1no[n+]([O-])c1-c1ccccc1
MIC90 [20]: 0.5 to 32 µg/mL (≈ 1.51 to 96.6 µM)
MIC90 [22]: 0.5 to 32 µg/mL (≈ 1.51 to 96.6 µM)
MIC90 [21]: 1 to 4 µg/mL (≈ 3.02 to 12.1 µM)

Compound: Cc1ncc([N+](=O)[O-])n1CCNCc1no[n+]([O-])c1C#N
MIC90 [20]: 0.5 to 32 µg/mL (≈ 1.71 to 109 µM)
MIC90 [22]: 0.5 to 32 µg/mL (≈ 1.71 to 109 µM)
MIC [21]: 5 µg/mL (≈ 17.1 µM)
MIC90 [21]: 0.5 µg/mL (≈ 1.71 µM)
MIC [23]: 0.25 to 1 µg/mL (≈ 0.853 to 3.41 µM)
MIC90 [23]: 1 µg/mL (≈ 3.41 µM)
Ratio [24]: >32

MIC [1]: 7.8 to 250 µg/mL
MIC [2]: 7.8 to 250 µg/mL (≈ 24.1 to 774 µM)
MIC [3]: 7.8 to 250 µg/mL (≈ 24.1 to 774 µM)
MIC [4]: 7.8 to 250 µg/mL (≈ 24.1 to 774 µM)
MIC [5]: 7.8 to 250 µg/mL (≈ 24.1 to 774 µM)
MIC [6]: 7.8 to 250 µg/mL (≈ 24.1 to 774 µM)
MIC [7]: 7.8 to 250 µg/mL (≈ 24.1 to 774 µM)
MIC [8]: 7.8 to 250 µg/mL (≈ 24.1 to 774 µM)
MIC [9]: 7.8 to 250 µg/mL (≈ 24.1 to 774 µM)
Compound: O=C(N[C@H](CO)[C@H](O)c1ccc([N+](=O)[O-])cc1)C(Cl)Cl [CHLORAMPHENICOL]

MIC [17]: 189 µM (≈ 62.6 µg/mL)
Compound: O=C(O)c1cn(C2CC2)c2cc(N3CCNCC3)c(F)cc2c1=O [CIPROFLOXACIN]
ED50 [25]: 4.53 mg/kg

Compound: COc1c(N2CCNC(C)C2)c(F)cc2c(=O)c(C(=O)O)cn(C3CC3)c12 (stereo not given) [GATIFLOXACIN]
MIC [18]: 0.06 to 16 µg/mL (≈ 0.16 to 42.6 µM)
MIC [19]: 0.06 to 16 µg/mL (≈ 0.16 to 42.6 µM)

Compound: CCn1cc(C(=O)O)c(=O)c2cc(F)c(N3CCNCC3)cc21 [NORFLOXACIN]
MIC [12]: 0.13 to 1 µg/mL (≈ 0.407 to 3.13 µM)
MIC [13]: 0.13 to 1 µg/mL (≈ 0.407 to 3.13 µM)
MIC [14]: 0.13 to 1 µg/mL (≈ 0.407 to 3.13 µM)
MIC [15]: 0.13 to 1 µg/mL (≈ 0.407 to 3.13 µM)
MIC [26]: 0.13 to 1 µg/mL (≈ 0.407 to 3.13 µM)
ED50 [25]: 5.6 mg/kg
MIC [27]: 13 to 1600 µM (≈ 4.15 to 512 µg/mL)
MIC [28]: 13 to 1600 µM (≈ 4.15 to 512 µg/mL)
MIC [29]: 13 to 1600 µM (≈ 4.15 to 512 µg/mL)
MIC [30]: 13 to 1600 µM (≈ 4.15 to 512 µg/mL)
MIC [31]: 13 to 1600 µM (≈ 4.15 to 512 µg/mL)
MIC [32]: 13 to 1600 µM (≈ 4.15 to 512 µg/mL)
MIC [33]: 13 to 1600 µM (≈ 4.15 to 512 µg/mL)
MIC [34]: 13 to 1600 µM (≈ 4.15 to 512 µg/mL)
MIC [35]: 100 µM (≈ 31.9 µg/mL)

Source: ChEMBL document CHEMBL4304773, “Nitroimidazole-containing compounds and their antibacterial and antitubercular activities” (2019)
